# Reference: ChEMBL document CHEMBL3885881, “DrugMatrix”
# Species: Rattus norvegicus
# Assay: DrugMatrix - Regimen: Daily Repeat
# Assay type: toxicity, organism-based, Sprague-Dawley
# Set-up: regimen Daily Repeat, gender Male, age 6-8 weeks
# Conditions: in vivo, po, route oral GAVAGE, vehicle 100 % WATER; for ABSOLUTE BASOPHIL / ABSOLUTE EOSINOPHIL / ABSOLUTE LYMPHOCYTE / ABSOLUTE MONOCYTE / ABSOLUTE SEGMENTED NEUTROPHIL / BASOPHIL / EOSINOPHIL / ERYTHROCYTE COUNT / HEMATOCRIT / HEMOGLOBIN / LEUKOCYTE COUNT / LYMPHOCYTE / MEAN CORPUSCULAR HEMOGLOBIN / MEAN CORPUSCULAR HEMOGLOBIN CONCENTRATION / MEAN CORPUSCULAR VOLUME / MONOCYTE / NEUTROPHIL / NUCLEATED RED BLOOD CELLS / PLATELET COUNT: tissue Blood; for ALANINE AMINOTRANSFERASE / ALBUMIN / ALKALINE PHOSPHATASE / ASPARTATE AMINOTRANSFERASE / BLOOD UREA NITROGEN / CARBON DIOXIDE / CHLORIDE / CHOLESTEROL / CREATINE PHOSPHOKINASE / CREATININE / GLUCOSE / LACTATE DEHYDROGENASE / LIPASE / PHOSPHORUS / POTASSIUM / SODIUM / TOTAL BILIRUBIN / TOTAL PROTEIN / URIC ACID: tissue Plasma
# [1] = 0 mg/kg, 72 h, dose level Control, time 3 day
# [2] = 0 mg/kg, 120 h, dose level Control, time 5 day
# [3] = 30 mg/kg, 72 h, dose level Low, time 3 day
compound,measurement,setting,value
CC1COc2c(N3CCN(C)CC3)c(F)cc3c(=O)c(C(=O)O)cn1c23 (centres undefined) [OFLOXACIN],ABSOLUTE BASOPHIL,[1],0 CELLS/uL
same,ABSOLUTE EOSINOPHIL,[1],0 CELLS/uL
same,ABSOLUTE LYMPHOCYTE,[1],10386.33 CELLS/uL
same,ABSOLUTE MONOCYTE,[1],88.5 CELLS/uL
same,ABSOLUTE SEGMENTED NEUTROPHIL,[1],1008.5 CELLS/uL
same,BASOPHIL,[1],0%
same,EOSINOPHIL,[1],0%
same,ERYTHROCYTE COUNT,[1],5.16 x10E6/uL
same,HEMATOCRIT,[1],32.43%
same,HEMOGLOBIN,[1],12.98 G/DL
same,LEUKOCYTE COUNT,[1],11.48 x10E3/uL
same,LYMPHOCYTE,[1],92.33%
same,MEAN CORPUSCULAR HEMOGLOBIN,[1],25.23 pg
same,MEAN CORPUSCULAR HEMOGLOBIN CONCENTRATION,[1],40.08 G/DL
same,MEAN CORPUSCULAR VOLUME,[1],62.95 fL
same,MONOCYTE,[1],0.67%
same,NEUTROPHIL,[1],7%
same,NUCLEATED RED BLOOD CELLS,[1],0 /100WBC
same,PLATELET COUNT,[1],1016.67 x10E3/uL
same,ALANINE AMINOTRANSFERASE,[1],62.17 u/L
same,ALBUMIN,[1],3.95 G/DL
same,ALKALINE PHOSPHATASE,[1],363.5 u/L
same,ASPARTATE AMINOTRANSFERASE,[1],118 u/L
same,BLOOD UREA NITROGEN,[1],14.5 mg/dL
same,CARBON DIOXIDE,[1],22.83 mmol/L
same,CHLORIDE,[1],100.67 MEQ/L
same,CHOLESTEROL,[1],66 mg/dL
same,CREATINE PHOSPHOKINASE,[1],1308.83 u/L
same,CREATININE,[1],0.22 mg/dL
same,GLUCOSE,[1],187.5 mg/dL
same,LACTATE DEHYDROGENASE,[1],380.17 u/L
same,LIPASE,[1],16.17 u/L
same,PHOSPHORUS,[1],14.27 mg/dL
same,POTASSIUM,[1],6.8 MEQ/L
same,SODIUM,[1],142.53 MEQ/L
same,TOTAL BILIRUBIN,[1],0.2 mg/dL
same,TOTAL PROTEIN,[1],5.68 G/DL
same,URIC ACID,[1],2.87 mg/dL
same,ABSOLUTE BASOPHIL,[2],0 CELLS/uL
same,ABSOLUTE EOSINOPHIL,[2],80 CELLS/uL
same,ABSOLUTE LYMPHOCYTE,[2],13301.33 CELLS/uL
same,ABSOLUTE MONOCYTE,[2],180.83 CELLS/uL
same,ABSOLUTE SEGMENTED NEUTROPHIL,[2],1187.83 CELLS/uL
same,BASOPHIL,[2],0%
same,EOSINOPHIL,[2],0.5%
same,ERYTHROCYTE COUNT,[2],5.54 x10E6/uL
same,HEMATOCRIT,[2],35.65%
same,HEMOGLOBIN,[2],14.22 G/DL
same,LEUKOCYTE COUNT,[2],14.75 x10E3/uL
same,LYMPHOCYTE,[2],90.67%
same,MEAN CORPUSCULAR HEMOGLOBIN,[2],25.65 pg
same,MEAN CORPUSCULAR HEMOGLOBIN CONCENTRATION,[2],39.88 G/DL
same,MEAN CORPUSCULAR VOLUME,[2],64.35 fL
same,MONOCYTE,[2],1%
same,NEUTROPHIL,[2],7.83%
same,NUCLEATED RED BLOOD CELLS,[2],0.17 /100WBC
same,PLATELET COUNT,[2],1285.33 x10E3/uL
same,ALANINE AMINOTRANSFERASE,[2],51.67 u/L
same,ALBUMIN,[2],4.08 G/DL
same,ALKALINE PHOSPHATASE,[2],391.5 u/L
same,ASPARTATE AMINOTRANSFERASE,[2],99.5 u/L
same,BLOOD UREA NITROGEN,[2],15.5 mg/dL
same,CARBON DIOXIDE,[2],28.33 mmol/L
same,CHLORIDE,[2],101.83 MEQ/L
same,CHOLESTEROL,[2],67.83 mg/dL
same,CREATINE PHOSPHOKINASE,[2],771.33 u/L
same,CREATININE,[2],0.23 mg/dL
same,GLUCOSE,[2],156.5 mg/dL
same,LACTATE DEHYDROGENASE,[2],544.33 u/L
same,LIPASE,[2],10.17 u/L
same,PHOSPHORUS,[2],12.03 mg/dL
same,POTASSIUM,[2],6.81 MEQ/L
same,SODIUM,[2],144.13 MEQ/L
same,TOTAL BILIRUBIN,[2],0.22 mg/dL
same,TOTAL PROTEIN,[2],6 G/DL
same,URIC ACID,[2],2.18 mg/dL
same,ABSOLUTE BASOPHIL,[3],0 CELLS/uL
same,ABSOLUTE EOSINOPHIL,[3],95.33 CELLS/uL
same,ABSOLUTE LYMPHOCYTE,[3],12358.67 CELLS/uL
same,ABSOLUTE MONOCYTE,[3],136.33 CELLS/uL
same,ABSOLUTE SEGMENTED NEUTROPHIL,[3],1043 CELLS/uL
same,BASOPHIL,[3],0%
same,EOSINOPHIL,[3],0.67%
same,ERYTHROCYTE COUNT,[3],5.52 x10E6/uL
same,HEMATOCRIT,[3],36.03%
same,HEMOGLOBIN,[3],13.97 G/DL
same,LEUKOCYTE COUNT,[3],13.63 x10E3/uL
same,LYMPHOCYTE,[3],90.67%
same,MEAN CORPUSCULAR HEMOGLOBIN,[3],25.4 pg
same,MEAN CORPUSCULAR HEMOGLOBIN CONCENTRATION,[3],38.77 G/DL
same,MEAN CORPUSCULAR VOLUME,[3],65.33 fL
same,MONOCYTE,[3],1%
same,NEUTROPHIL,[3],7.67%
same,NUCLEATED RED BLOOD CELLS,[3],0 /100WBC
same,PLATELET COUNT,[3],1082 x10E3/uL
same,ALANINE AMINOTRANSFERASE,[3],46.67 u/L
same,ALBUMIN,[3],4.03 G/DL
same,ALKALINE PHOSPHATASE,[3],420.67 u/L
same,ASPARTATE AMINOTRANSFERASE,[3],75 u/L
same,BLOOD UREA NITROGEN,[3],13.33 mg/dL
same,CARBON DIOXIDE,[3],28 mmol/L
same,CHLORIDE,[3],100.33 MEQ/L
same,CHOLESTEROL,[3],76.33 mg/dL
same,CREATINE PHOSPHOKINASE,[3],165.33 u/L
same,CREATININE,[3],0.19 mg/dL
same,GLUCOSE,[3],159 mg/dL
same,LACTATE DEHYDROGENASE,[3],114 u/L
same,LIPASE,[3],10.67 u/L
same,PHOSPHORUS,[3],13.07 mg/dL
same,POTASSIUM,[3],6.69 MEQ/L
same,SODIUM,[3],143.73 MEQ/L
same,TOTAL BILIRUBIN,[3],0.2 mg/dL
same,TOTAL PROTEIN,[3],5.87 G/DL
same,URIC ACID,[3],1.23 mg/dL
